The source of these data is article PMC10573062, “Synthesis, Structural Characterization, Cytotoxicity, and Protein/DNA Binding Properties of Pyridoxylidene-Aminoguanidine-Metal (Fe, Co, Zn, Cu) Complexes” (International Journal of Molecular Sciences, 2023).

A value given as a limit tells only on which side of the number the result lay.

Data set [1] in a line: Qualitative solubility in solvents. The data set is classed as physicochemical.
Data set [2] deals with HCT116 colorectal carcinoma. Kind of data set: CV (crystal-violet) viability assay, HCT116. In kind it is cell-based, human. Particulars: 72 h of treatment. On the procedure: (§1) The following cell lines were used in this study: human cell lines (A375 melanoma, MCF-7 breast cancer, HCT116 colorectal carcinoma, and A2780 ovarian cancer. These cell lines were purchased from the American Type Culture Collection (Rockville, MD, USA). The A2780 cells were cultivated in DMEM, while all other cell lines were cultivated in the HEPES-buffered RPMI-1640 medium. The cell culture mediums were supplemented with penicillin (1000 units/mL), streptomycin (100 µg/mL), and 10% inactivated FBS. All cells were cultivated at 37 °C in a humidified atmosphere with 5% CO2.
(§2) Two colorimetric viability assays were applied, namely 3-(4,5-dimethylthiazol-2-yl)-2,5-diphenyl-2H-tetrazolium bromide (MTT) and crystal-violet (CV) (Sigma Aldrich, St. Louis, MO, USA), according to the previous studies. The cells were seeded overnight in 96-well plates: A2780 and MRC-5 8 × 10^3 cells/well, HCT 116 6 × 10^3 cells/well, A375 5 × 10^3 cells/well, and MCF-7 at 10 × 10^3 cells/well [67]. The standard solutions of complexes were prepared in DMSO. All cells were treated with the following concentrations of investigated compounds: 100, 50, 25, 12.5, 6.25, 3.125, and 1.56 µM. After 72 h of treatment, viability assays were conducted. For the CV assay, cells were fixed using 4% paraformaldehyde (PFA) for 20 min at room temperature after being washed once with PBS. Afterward, they were stained with 0.2% CV solution for 25 min. This procedure was followed by washing with double distilled water. The cells were left to dry overnight at room temperature. In the last step, 33% acetic acid was used to dissolve the remaining dye. The other test included incubating cells in MTT solution (0.5 mg L^−1 in cell culture medium) for […] at 37 °C in a humid environment with 5% CO2. After one hour, the MTT solution was discarded, and the formed formazan was dissolved using DMSO. A plate reader (Spectromax, Molecular Devices, San Jose, CA, USA) was utilized for the absorption measurements at 570 and 670 (background) nm. The cell viability was calculated as the percentage compared to untreated cells, and the mean was obtained using a four-parametric logistic function. Each of the three independent experiments was performed in quadruplicate.

The target of data set [3] is T1, human serum albumin (HSA) (Homo sapiens, UniProt P02768).
T1 construct: purchased
T1 sequence (P02768 25-609): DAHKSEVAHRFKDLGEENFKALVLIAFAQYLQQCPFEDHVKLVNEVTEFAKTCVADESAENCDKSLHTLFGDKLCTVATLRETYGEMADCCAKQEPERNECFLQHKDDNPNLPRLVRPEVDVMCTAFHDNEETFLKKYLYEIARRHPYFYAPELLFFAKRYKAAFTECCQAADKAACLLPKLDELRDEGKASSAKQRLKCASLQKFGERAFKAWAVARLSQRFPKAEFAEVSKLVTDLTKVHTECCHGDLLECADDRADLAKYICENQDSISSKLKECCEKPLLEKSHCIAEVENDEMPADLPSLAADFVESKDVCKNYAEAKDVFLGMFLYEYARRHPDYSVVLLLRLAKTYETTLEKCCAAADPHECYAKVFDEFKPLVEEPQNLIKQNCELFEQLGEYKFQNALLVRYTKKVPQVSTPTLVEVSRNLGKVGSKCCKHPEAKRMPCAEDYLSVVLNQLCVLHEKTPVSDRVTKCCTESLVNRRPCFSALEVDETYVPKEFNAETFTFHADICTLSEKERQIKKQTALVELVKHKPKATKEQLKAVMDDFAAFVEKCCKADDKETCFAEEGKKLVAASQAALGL
Kind of data set: Spectrofluorometric titration of HSA (fluorescence quenching, double log Stern–Volmer, van't Hoff). In kind it is binding. Particulars: for ΔHb / ΔSb: van't Hoff over three temperatures. The method, then: (§3) The protein binding affinity of obtained compounds was analyzed by the spectrofluorometric titration of BSA and HSA solution by the solution containing obtained compounds. The mixture was irradiated by light with a wavelength of 295 (BSA) and 280 nm (HSA). Both proteins contain fluorescent amino acids within active pockets, and the binding process can be monitored through the change in intensity and position of the emitted light maxima. The fluorescent emission depends on the chemical environment of amino acids. The measurements for each complex were repeated at three temperatures to allow the determination of the thermodynamic parameters of binding.
The binding affinity of obtained complexes was also examined towards HSA as a transport protein relevant to the human body. The temperature range was changed to reflect better temperatures common for humans (32–42 °C). The representative example of the HAS fluorescence measurements is shown in Figure 9, along with van’t Hoff’s plot. The decrease in the fluorescence intensity emission was also dependent on the concentration of complexes. On average, the binding constants were similar to the ones calculated for BSA. […] High correlation coefficients, between 0.990 and 0.998, were calculated for the dependency described by Equation (2). The number of binding places is 1, proving that the same type of complexes were formed between investigated compounds and HAS as previously shown for BSA.
(§4) The spectrofluorometric measurements were used to investigate the binding process of obtained compounds towards bovine serum albumin (BSA) and human serum albumin (HSA) on the Cary Eclipse MY2048CH03 instrument. The scan rate was 600 nm min^−1, and both slits were 5 nm. The excitation wavelengths were 295 nm and 280 nm for BSA and HSA, respectively. These energies are characteristics of the protein structure’s tryptophan and other fluorescent amino acid residues. The emission spectra were recorded between 310 and 500 nm. The concentration of proteins was held constant at 5 × 10^−6 M in […] phosphate buffer saline (pH = 7.4). The concentration of complexes changed from 1 to 10 × 10^−6 M, and the emission spectrum was recorded two minutes after the addition of compounds. The data were analyzed by the double log Stern–Volmer quenching equation (Equation (2)):(2) logI0−I/I=logKb+nlogQ
In the previous equation, I0 and I are the fluorescent emission intensities of BSA/HSA without and with added metal complexes, respectively; Kb is the binding constant; n is the number of binding places; and [Q] is the concentration of quenchers (metal complexes).
The changes in enthalpy and entropy of the binding process were determined from the vant’t Hoff equation (Equation (3)) following the measurements at three temperatures (27, 32, and 37 °C):(3) lnKb=−∆Hb/RT+∆Sb/R

The subject of data set [4] is HCT116 colorectal carcinoma. Kind of data set: MTT viability assay, HCT116. The data set is classed as cell-based, human. Particulars: 72 h of treatment. On the procedure:
as §1, §2

In data set [5] the test system is A2780 ovarian cancer. Kind of data set: MTT viability assay, A2780. The data set is classed as cell-based, human. Particulars: 72 h of treatment. On the procedure: as §1, §2
In data set [6] the target is T2, bovine serum albumin (BSA) (Bos taurus, UniProt P02769).
T2 construct: purchased
T2 sequence (P02769 25-607): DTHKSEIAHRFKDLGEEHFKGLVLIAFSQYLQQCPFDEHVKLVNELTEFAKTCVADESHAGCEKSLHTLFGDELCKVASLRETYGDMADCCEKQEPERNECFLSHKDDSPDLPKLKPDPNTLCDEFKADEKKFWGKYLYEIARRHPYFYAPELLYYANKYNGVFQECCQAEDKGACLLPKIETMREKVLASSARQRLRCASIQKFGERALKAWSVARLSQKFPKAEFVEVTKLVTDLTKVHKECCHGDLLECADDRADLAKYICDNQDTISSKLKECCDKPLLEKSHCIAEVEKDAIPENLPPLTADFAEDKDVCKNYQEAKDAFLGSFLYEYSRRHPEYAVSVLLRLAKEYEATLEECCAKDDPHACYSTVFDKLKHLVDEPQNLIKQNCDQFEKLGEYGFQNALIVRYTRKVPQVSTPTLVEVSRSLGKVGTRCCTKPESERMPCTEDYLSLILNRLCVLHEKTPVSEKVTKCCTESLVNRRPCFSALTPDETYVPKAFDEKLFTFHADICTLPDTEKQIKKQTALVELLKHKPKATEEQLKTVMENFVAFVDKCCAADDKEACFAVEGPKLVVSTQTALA
Kind of data set: Spectrofluorometric titration of BSA (fluorescence quenching, double log Stern–Volmer, van't Hoff). In kind it is binding. Particulars: for ΔHb / ΔSb: van't Hoff over three temperatures. The method, then: as §3, §4
In the previous equation, I0 and I are the fluorescent emission intensities of BSA/HSA without and with added metal complexes, respectively; Kb is the binding constant; n is the number of binding places; and [Q] is the concentration of quenchers (metal complexes). […]

Data set [7] has as its system MCF-7 breast cancer. Kind of data set: CV (crystal-violet) viability assay, MCF-7. To be noted: MCF-7, CV, 72 h of treatment. The data set is classed as cell-based, human. On the procedure: as §1, §2
Data set [8] deals with MCF-7 breast cancer. Kind of data set: MTT viability assay, MCF-7. The data set is classed as cell-based, human. To be noted: MCF-7, MTT, 72 h of treatment. The method, then:
as §1, §2

Data set [9] concerns A2780 ovarian cancer. Kind of data set: CV (crystal-violet) viability assay, A2780. In kind it is cell-based, human. Particulars: 72 h of treatment. On the procedure: as §1, §2
The subject of data set [10] is A375 melanoma. Kind of data set: MTT viability assay, A375. The data set is classed as cell-based, human. To be noted: 72 h of treatment. On the procedure:
as §1
as §2, with “After one hour, the MTT solution was discarded, and the formed formazan was dissolved using DMSO.” left out, “Each of the three independent experiments was performed in quadruplicate.” left out

Data set [11] deals with A375 melanoma. Kind of data set: CV (crystal-violet) viability assay, A375. The data set is classed as cell-based, human. Particulars: 72 h of treatment. The method, then:
as §1
as §2, with “After one hour, the MTT solution was discarded, and the formed formazan was dissolved using DMSO.” left out, “Each of the three independent experiments was performed in quadruplicate.” left out

Where [12] appears, read: in chloroform, dimethylsulfoxide, dimethylformamide, acetone, and acetonitrile.
The mark [13] stands for this setting: in methanol, ethanol, phosphate buffer saline, and water.

Turning to `Cc1ncc(CO)c(/C=N/N=C(N)N)c1O` [PLAG, Pyridoxylidene-aminoguanidine], the solubility result was “soluble” in [1] (in MeOH and DMF); “insoluble” in [1] (in diethyl ether and toluene); “moderately soluble” in data set [1] (in methanol, ethanol, and water).

For Cu(PLAG)(NCS)2 [Cu-PLAG], the IC50 in [2] turned out to be 97.4 ± 3.7 µM; in [4], 81.5 ± 0.1 µM; in the data set with A2780 ovarian cancer [5] it was 32.5 ± 2.6 µM; in the data set with MCF-7 breast cancer [7], 65.4 ± 4.8 µM; in the data set on MCF-7 breast cancer [8], 48.3 ± 1.5 µM; with A2780 ovarian cancer [9] it was 38.5 ± 2.1 µM. Further, the “n (number of binding places)” value came out at 0.91 in [3] (32 °C); 0.90 in data set [3] (37 °C); 0.98 in [3] (42 °C); 1.13 in data set [6] (27 °C); 1.10 in [6] (32 °C); 0.98 in [6] (35 °C). Besides, the ΔGb is -5.37 kcal/mol in [3] (32 °C); -5.961 kcal/mol in [3] (37 °C); -6.554 kcal/mol in data set [3] (42 °C); -5.382 kcal/mol in [6] (27 °C); -7.087 kcal/mol in data set [6] (32 °C); -8.788 kcal/mol in [6] (35 °C). Besides, the ΔHb in [3] is 30.727 kcal/mol; in data set [6], 96.793 kcal/mol. The ΔSb came to 495.17 J mol^−1 K^−1 in data set [3] and 1425.02 J mol^−1 K^−1 in [6]. Besides, the “Kb (binding constant)” value in [6] (27 °C) was 9630 M⁻¹; in data set [6] (32 °C), 89700 M⁻¹; in data set [6] (35 °C), 1.82e+06 M⁻¹. Further, the solubility entry in data set [1] (setting [12]) is on record as “soluble”; in data set [1] (in diethyl ether and toluene), “insoluble”; in [1] (setting [13]), “moderately soluble”.

Consider [Co(PLAG)2]SO4^.2H2O [Co-PLAG], for which the concentration for half-maximal inhibition (IC50) (in [2]; in the data set on A375 melanoma [10]; in [4]; with A2780 ovarian cancer [5]; in the data set with A375 melanoma [11]; with MCF-7 breast cancer [7]) was > 100 µM in each case. Also, the IC50 in the data set on MCF-7 breast cancer [8] and in the data set on A2780 ovarian cancer [9] was > 100 µM throughout. The “n (number of binding places)” value is on record as 1.05 in data set [3] (32 °C); 1.08 in data set [3] (37 °C); 1.16 in [3] (42 °C); 0.97 in data set [6] (27 °C); 0.98 in data set [6] (32 °C); 0.96 in data set [6] (35 °C). For the same molecule, the ΔGb in [3] (32 °C) is -5.578 kcal/mol; in [3] (37 °C), -6.761 kcal/mol; in data set [3] (42 °C), -7.945 kcal/mol; in data set [6] (27 °C), -5.858 kcal/mol; in data set [6] (32 °C) it was -6.021 kcal/mol; in [6] (35 °C), -6.181 kcal/mol. The ΔHb was 66.597 kcal/mol in [3] and 3.826 kcal/mol in data set [6]. For the same molecule, the results for the ΔSb in [3] and in data set [6] were 990.11 J mol^−1 K^−1 and 135.08 J mol^−1 K^−1, respectively. Further, the figures for the “Kb (binding constant)” value in data set [6] (27 °C), in data set [6] (32 °C) and in data set [6] (35 °C) were 18600 M⁻¹, 20400 M⁻¹ and 22900 M⁻¹, respectively. Further, the solubility result in [1] (setting [12]) is “soluble”; in data set [1] (in diethyl ether and toluene), “insoluble”; in data set [1] (setting [13]), “moderately soluble”.

As to [Fe(PLAG)2]SO4^.2H2O [Fe-PLAG], the IC50 (in [2]; with A375 melanoma [10]; in data set [4]; in the data set with A2780 ovarian cancer [5]; in the data set with A375 melanoma [11]; in the data set with MCF-7 breast cancer [7]) was > 100 µM throughout. Besides, the half-maximal inhibitory concentration (IC50) in the data set with MCF-7 breast cancer [8] and with A2780 ovarian cancer [9] was > 100 µM each time. For the same molecule, the “n (number of binding places)” value is on record as 1.09 in data set [3] (32 °C); 0.90 in data set [3] (37 °C); 1.12 in [3] (42 °C); 1.12 in data set [6] (27 °C); 1.10 in [6] (32 °C); 1.04 in data set [6] (35 °C). Moreover, the ΔGb in data set [3] (32 °C) was -5.081 kcal/mol; in [3] (37 °C) it was -6.647 kcal/mol; in [3] (42 °C), -8.212 kcal/mol; in [6] (27 °C), -6.171 kcal/mol; in [6] (32 °C), -6.888 kcal/mol; in data set [6] (35 °C), -7.605 kcal/mol. In addition, the ΔHb in [3] was found to be 90.411 kcal/mol; in data set [6] it was 36.898 kcal/mol. Besides, the figures for the ΔSb in data set [3] and in data set [6] were 1309.95 J mol^−1 K^−1 and 600.66 J mol^−1 K^−1, respectively. The “Kb (binding constant)” value amounted to 31800 M⁻¹ in [6] (27 °C), 83200 M⁻¹ in [6] (32 °C) and 234000 M⁻¹ in [6] (35 °C). The solubility result was “soluble” in [1] (setting [12]); “insoluble” in data set [1] (in diethyl ether and toluene); “moderately soluble” in data set [1] (setting [13]).
